Test system: MCF-7 cells
Assay: Microarray evaluation of estrogen-like activity (expression levels of estrogen-responsive genes/ESTs, Cy3/Cy5) in MCF-7 cells

Clc1cc2c(cc1Cl)Oc1cc(Cl)c(Cl)cc1O2 [dioxin, 2,3,7,8-tetrachlorodibenzo-p-dioxin]
evaluation value considering weighting factor (K): 32.90 | Σ(E(example)n), summation value of expression levels (10 nM treatment, n=1 to 203, independently determined): 207.49 | evaluation value = Σ[|log{BDE(A)n/BDE(Estrogen)n}|], n=1 to 203 (listed as example 2): 46.19
